Measured values published in PubChem BioAssay (NCI).
“And” between values parts separate entries of the source, which are not always exact repeats. Equal values may be shown once.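 Dose response: 5 concentrations. Exposure: 48 h. Format: 96-well plates. Endpoint: linear interpolation; highest concentration if not reached. Abbreviation: GI50, concentration required for 50% inhibition of growth. The concentration for full growth arrest is given as TGI.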

Key:
Assay in all cases: inhibition of tumour cell growth, NCI panel, 48 h
[1] = tested on: PC-3 prostate
[2] = tested on: HL-60(TB) leukemia
[3] = tested on: HOP-62 NSCLC
[4] = tested on: CAKI-1 renal
[5] = tested on: NCI/ADR-RES ovarian
[6] = tested on: EKVX NSCLC
[7] = tested on: MALME-3M melanoma
[8] = tested on: DU-145 prostate
[9] = tested on: LOX IMVI melanoma
[10] = tested on: MDA-MB-435
[11] = tested on: HCT-116 colon
[12] = tested on: HOP-92 NSCLC
[13] = tested on: SF-539 CNS
[14] = tested on: HS 578T breast
[15] = tested on: U251 CNS
[16] = tested on: OVCAR-4 ovarian
[17] = tested on: UACC-62 melanoma
[18] = tested on: HCT-15 colon
[19] = tested on: 786-0 renal
[20] = tested on: KM12 colon
[21] = tested on: SK-MEL-5 melanoma
[22] = tested on: SK-OV-3 ovarian
[23] = tested on: NCI-H23 lung
[24] = tested on: OVCAR-3 ovarian
[25] = tested on: HT29 colon
[26] = tested on: K-562 leukemia
[27] = tested on: UACC-257 melanoma
[28] = tested on: MOLT-4 leukemia
[29] = tested on: SNB-19 CNS
[30] = tested on: BT-549 breast
[31] = tested on: CCRF-CEM leukemia
[32] = tested on: SR leukemia
[33] = tested on: M14 melanoma
[34] = tested on: NCI-H460 lung
[35] = tested on: TK-10 renal
[36] = tested on: NCI-H226 lung
[37] = tested on: SK-MEL-2 melanoma
[38] = tested on: UO-31 renal
[39] = tested on: SNB-75 CNS
[40] = tested on: T-47D breast
[41] = tested on: RPMI-8226 leukemia
[42] = tested on: NCI-H522 lung
[43] = tested on: IGROV1 ovarian
[44] = tested on: HCC-2998 colon
[45] = tested on: A549 NSCLC
[46] = tested on: OVCAR-5 ovarian
[47] = tested on: SF-295 CNS
[48] = tested on: SF-268 CNS
[49] = tested on: MDA-MB-231 breast
[50] = tested on: SN12C renal
[51] = tested on: A498 renal
[52] = tested on: OVCAR-8 ovarian
[53] = tested on: COLO 205 colon
[54] = tested on: ACHN renal
[55] = tested on: MCF7 breast
[56] = tested on: SW-620 colon
[57] = tested on: RXF 393 renal
[58] = tested on: SK-MEL-28 melanoma
[59] = tested on: MDA-N

O=[N+]([O-])c1c(Br)cc(Br)c2c1Nc1c(ccc(Cl)c1Cl)S2
TGI [1]: 35 µM
TGI [2]: > 23.9 µM
TGI [3]: 34.9 µM
TGI [4]: 33.6 µM
TGI [5]: 75.1 µM
TGI [6]: 30.9 µM
TGI [7]: 27.7 µM
TGI [8]: 27.3 µM
TGI [9]: 8.78 µM
TGI [10]: 31.5 µM
TGI [11]: 19.1 µM
TGI [12]: 34.3 µM
TGI [13]: 41.2 µM
TGI [14]: > 100 µM
TGI [15]: 35.1 µM
TGI [16]: 28.7 µM
TGI [17]: 33.1 µM
TGI [18]: 39.7 µM
TGI [19]: 22.8 µM
TGI [20]: 20.5 µM
TGI [21]: 30.2 µM
TGI [22]: 43 µM
TGI [23]: 29.6 µM
TGI [24]: 9.5 µM
TGI [25]: 26 µM
TGI [26]: 17.3 µM
TGI [27]: 21.2 µM
TGI [28]: 7.6 µM
TGI [29]: 35.1 µM
TGI [30]: 8.87 µM
TGI [31]: 7.49 µM
TGI [32]: > 26.8 µM
TGI [33]: 23.6 µM
TGI [34]: 41.4 µM
TGI [35]: 37.1 µM
TGI [36]: 31.6 µM
TGI [37]: 39.2 µM
TGI [38]: 20.5 µM
TGI [39]: > 72 µM
TGI [40]: 29.9 µM
TGI [41]: > 100 µM
TGI [42]: 20.5 µM
TGI [43]: 31.2 µM
TGI [44]: 28.8 µM
TGI [45]: 39.5 µM
TGI [46]: 33.7 µM
TGI [47]: 39.1 µM
TGI [48]: 38.6 µM
TGI [49]: 26.6 µM
TGI [50]: 27.9 µM
TGI [51]: 39.1 µM
TGI [52]: 13.6 µM
TGI [53]: 26.3 µM
TGI [54]: 30.7 µM
TGI [55]: 17.9 µM
TGI [56]: 25.7 µM
TGI [57]: 35.1 µM
TGI [58]: 31.4 µM

CC(CN(C)C)Nc1c2ccccc2nc2cccc([N+](=O)[O-])c12 (stereo not given)
GI50 [2]: 0.0182 µM
GI50 [3]: 0.12 µM and < 0.013 µM
TGI [59]: 0.748 µM
GI50 [8]: 0.0747 µM and < 0.0219 µM
TGI [8]: 11.9 µM
GI50 [11]: 0.026 µM and < 0.01 µM
GI50 [12]: 0.226 µM and 0.0258 µM
GI50 [13]: 0.337 µM and < 0.0378 µM
TGI [13]: 1.31 µM
GI50 [14]: < 0.01 µM
TGI [14]: < 0.01 µM
TGI [16]: 0.61 µM and 5.21 µM
GI50 [21]: 0.0715 µM and < 0.01 µM
TGI [25]: 1.02 µM and 0.413 µM
TGI [26]: 0.764 µM
GI50 [30]: 0.54 µM
TGI [30]: 1.9 µM
TGI [31]: 2.87 µM
GI50 [34]: 0.0248 µM and < 0.0111 µM
TGI [34]: 0.206 µM and 0.711 µM
GI50 [38]: 0.188 µM and < 0.0237 µM
TGI [38]: 0.457 µM and 0.887 µM
GI50 [39]: 0.342 µM and 0.0431 µM
TGI [39]: 1.59 µM and 0.268 µM
TGI [42]: 0.111 µM
TGI [43]: 10.1 µM
GI50 [47]: 0.0968 µM and < 0.01 µM
TGI [49]: 2.64 µM
TGI [55]: 0.636 µM
GI50 [56]: 0.306 µM
TGI [56]: 11.8 µM
TGI [57]: 14.9 µM
